We go through one compound from patent publication US20170158599A1, “COMPOSITIONS AND METHODS COMPRISING SALICYLATES AND POLYSALICYLATES” (Biocogent, LLC, priority 2014, published 2017).

This experiment relates to peripheral blood mononuclear cells (PBMC). The experiment can be described thus: Lipid mediators of the resolution pathways in PBMC with PMA/A23187 stimulation. It is filed as cell-based. From the text:
The next two sets of adjacent bars show a comparison of the effects of treatment with PMA plus A23187 in the presence of salicylic acid (on left of each group) and polysalicylic acid (on right of each group) in amounts of 1.6 micrograms per milliliter (μg/mL) and 8 micrograms per milliliter (μg/mL), respectively. […] The resultant SA derivative was evaluated at different doses on the synthesis of 8 intermediate lipids of the resolution pathways in PMBC with PMA/A23187 stimulation. PMBC cells were seeded and allowed to settle for 1 hour; the test compounds were then added and allowed to incubate for an additional hour. The inflammatory stimulus (PMA plus A23187) was added for one hour, and supernatants were collected and analyzed for lipid intermediates.

Take `O=C(O)c1ccccc1O` [salicylic acid, 2-hydroxybenzoic acid]: under “PMA plus A23187, 1.6 and 8 μg/mL (FIG. 1)”, the 14-HDOHE levels/production result is “noticeable increase over the control”. The 12-HETE levels/production entry (PMA plus A23187, 1.6 and 8 μg/mL (FIG. 2)) is listed as “noticeable increase over the control”.
